One compound from patent US20100190187A1, “Screening Assays for Antagonists and Analyses of Cardiac Hypertrophy” (The Regents of the University of Michigan Office of …, priority 2006, published 2010) can be followed below.

For the assay, the system named is HL-1 cells. The assay is described as follows: Western blot of hypertrophy biomarkers in HL-1 cells. It counts as cell-based, murine. The settings on record: for dose dependence of expression of the VDR: FIG. 13(C), compared to control. The protocol: Screening assays employing incubation of VDR containing cells with and without a test compound. Cell extracts can be prepared and screened for increases or decreases of cardiac hypertrophy biomarkers or increase in PKC activity, VDR expression, myotrophin expression, using antibody detection methods described herein. Equivalent protein quantities of test compound cell extracts and control cell extracts can be loaded onto continuous or discontinuous PAGE gels and electrophoresed from 15 min to 24 hours, depending on the size of the gel. Following electrophoresis, the proteins can be electrophoretically transferred to PVDF membranes and probed with antibodies specific for example to Protein Kinase C and downstream regulated products c-myc, VDR, ANP, calbindin 9 and 32 and myotrophin. Bound antibodies can be visualized using chemiluminescent detection, chromatic detection or any method of detection of labeled membrane bound antibodies otherwise known as Western blotting. […] In FIG. 13(A), Western blots reveal that when HL-1 cells are incubated in the presence of a control sample (left lane) and a test compound (right lane). In some embodiments, for example, Vitamin D3 analog or metabolite, can be the test compound, or Vitamin D3 can be a control to measure the activity of the test compound. As shown in FIG. 13(A), Vitamin D3 reduces the expression of ANP, c-myc and calbindin 9 as compared to cells not incubated in the presence if Vitamin D3. […] Vitamin D3 has a positive up-regulating effect upon the expression of the VDR in HL-1 cells.
Treated and control samples of HL-1 cells are trypsinized and removed from flasks. Cell counts are performed under microscope with a Fisher hemacytometer. Samples are centrifuged at 3000 RPM for 2 minutes to obtain a pellet, which is then re-suspended in an SDS-leupeptin sample buffer (SB). This whole cell lysate can then be boiled for 15 minutes, separated into working aliquots, and stored at −20° C. for analysis. Standard Bradford Protein Determination is then performed on all samples. Samples are then electrophoresed as described in Example 4. Following electrophoresis, protein is transferred onto a PVDF (Millipore) membrane. After blocking the membrane for one hour with 5% milk in TBS containing 0.05% Tween 20 (Sigma), the blots are incubated with primary and secondary antibodies according to the dilutions listed below. The blot is washed three times in TBS/0.5% Tween 20 after each incubation, followed by one final wash in TBS. The membrane can then be treated with ECL developer (Amersham Biosciences) and exposed to Kodak Biomax XAR film. To confirm equal loading of protein into the wells each blot can be stripped and re-probed with HRP conjugated goat anti-mouse actin antibody (sc-1616HRP; Santa Cruz Biotechnology Co; 1:1000). The primary antibodies that can be used include rabbit anti-mouse VDR (sc-1008; Santa Cruz Bio; 1:200 dilution); rabbit anti-mouse ANP (AB 5490; Chemicon; 1:500 dilution), mouse monoclonal anti-myotrophin (V11220; BD Transduction Laboratory; 1:1000), rabbit anti-mouse c-myc (sc-764, Santa Cruz Bio; 1:100), and goat anti-mouse calbindin-9 (sc-18038, Santa Cruz Bio; 1:100). The secondary antibodies which can be used include HRP conjugated goat anti-rabbit (AP 132P, Chemicon; 1:1000) for VDR, ANP, and c-myc. HRP conjugated goat anti-mouse (A 2304, Sigma; 1:1000), and bovine anti-goat Ab (sc2350, Santa Cruz Bio; 1:250), for myotrophin and calbindin-9, respectively.
(In general: A western blot detects proteins with antibodies after separation by electrophoresis.)

For `C=C1CC[C@H](O)C/C1=C/C=C1\CCC[C@]2(C)[C@@H]([C@H](C)CCCC(C)C)CC[C@@H]12` [Vitamin D3], the “dose dependence of expression of the VDR” value is recorded as “dose dependent”. Also, where the note is “FIG. 13(A)”, the “levels of intracellular ANP” value is “significantly reduced levels”, the “levels of intracellular Calbindin 9” value was “significantly reduced levels” and the “levels of intracellular c-myc” value is “significantly reduced levels”. Also, under “FIG. 13(B), 1 and 24 hours post exposure”, the “expression of the VDR” value is on record as “up-regulated”. Further, the “dose dependence of expression of the VDR” value (listed as Vitamin D 3) is given as “dose dependent induction of expression of VDR”.
